Values quoted from earlier work in patent US12263175B2, “Optimised dosage of diaminophenothiazines in populations” (WisTa Laboratories Ltd., priority 2018, dated 2025).

What was measured:
[1] = test system: TDP-43 aggregates in SH-SY5Y cells; conditions: 0.05 μM MT; cited from earlier work
[2] = test system: huntingtin derivative containing a polyglutamine stretch of 102 residues; conditions: zebrafish; tested at 0, 10 and 100 μM; cited from earlier work
[3] = phase 2 study, cited from earlier work

Row | Structure (SMILES) | Reduction of the number of TDP-43 aggregates [1] [%] | Formation of aggregates of huntingtin derivative (polyglutamine stretch of 102 residues) [2] | Efficacy at higher dose ([3]; 218 mg/day) | Minimum safe and effective dose [3] [mg/day]
1 | CN(C)c1ccc2nc3ccc(=[N+](C)C)cc-3sc2c1 [MT, methylthioninium] | 50 | prevented the formation of such aggregates in zebrafish in a dose-dependent manner |  | 
2 | CN(C)c1ccc2nc3ccc(N(C)C)cc3[s+]c2c1.[Cl-] [MTC, methylthioninium chloride] |  |  | limited efficacy | 138
